Test results taken from PubChem BioAssay AID258 (DTP/NCI, 2004).
“And” between values parts separate entries of the source, which are not always exact repeats. Equal entries are not always repeated. Toxic doses and inconclusive results are not listed.

Tested on: CD2F1 mice, L1210 leukemia sc, survival T/C
Assay: NCI In Vivo Anticancer Drug Screen. Data for tumor model L1210 Leukemia (subcutaneous) in CD2F1 (CDF1) mice
Settings: endpoint: median survival time, higher = longer survival
Procedure, shortened: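 Antitumor activity is scored in tumor-bearing mice by comparing survival or tumor size of treated animals against vehicle-treated controls, reported as T/C.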

## CC[C@]1(O)C[C@H]2CN(CCc3c([nH]c4ccccc34)[C@@](C(=O)OC)(c3cc4c(cc3OC)N(C=O)[C@H]3[C@@](O)(C(=O)OC)[C@H](OC(C)=O)[C@]5(CC)C=CCN6CC[C@]43[C@@H]65)C2)C1
dose: 0.15 mg/kg/injection, schedule: Q01DX009 (ip), vehicle: saline
  T/C: 98 % of control
dose: 0.2 mg/kg/injection, schedule: Q01DX009 (ip), vehicle: saline
  T/C: 101 % of control
dose: 0.25 mg/kg/injection, schedule: Q01DX009 (ip), vehicle: saline
  T/C: 98 % of control
dose: 0.25 mg/kg/injection, schedule: Q01DX009 (sc), vehicle: saline
  T/C: 113 % of control
dose: 0.5 mg/kg/injection, schedule: Q01DX009 (sc), vehicle: saline
  T/C: 108 % of control
dose: 0.75 mg/kg/injection, schedule: Q01DX009 (sc), vehicle: saline
  T/C: 104 % of control and 92 % of control
dose: 1.0 mg/kg/injection, schedule: Q01DX009 (sc), vehicle: saline
  T/C: 102 % of control
dose: 1.25 mg/kg/injection, schedule: Q01DX001 (iv), vehicle: water
  T/C: 120 % of control
dose: 1.25 mg/kg/injection, schedule: Q01DX001 (sc), vehicle: water
  T/C: 120 % of control
dose: 1.25 mg/kg/injection, schedule: Q01DX009 (sc), vehicle: saline
  T/C: 111 % of control
dose: 1.5 mg/kg/injection, schedule: Q01DX009 (sc), vehicle: saline
  T/C: 107 % of control
dose: 2.5 mg/kg/injection, schedule: Q01DX001 (iv), vehicle: water
  T/C: 120 % of control
dose: 63.0 micrograms/kg/injection, schedule: Q01DX009 (ip), vehicle: saline
  T/C: 101 % of control
dose: 63.0 micrograms/kg/injection, schedule: Q01DX009 (sc), vehicle: saline
  T/C: 103 % of control
dose: 125.0 micrograms/kg/injection, schedule: Q01DX009 (ip), vehicle: saline
  T/C: 98 % of control
dose: 125.0 micrograms/kg/injection, schedule: Q01DX009 (sc), vehicle: saline
  T/C: 103 % of control
dose: 250.0 micrograms/kg/injection, schedule: Q01DX009 (ip), vehicle: saline
  T/C: 96 % of control
dose: 250.0 micrograms/kg/injection, schedule: Q01DX009 (sc), vehicle: saline
  T/C: 107 % of control
dose: 500.0 micrograms/kg/injection, schedule: Q01DX009 (ip), vehicle: saline
  T/C: 96 % of control
dose: 500.0 micrograms/kg/injection, schedule: Q01DX009 (sc), vehicle: saline
  T/C: 114 % of control

## O=C(O)c1cc(=O)[nH]c(=O)[nH]1
dose: 300.0 mg/kg/injection, schedule: Q01DX Z (sc), vehicle: saline
  T/C: 100 % of control

## Nc1nc2c(ncn2C2CC(O)C(CO)O2)c(=O)[nH]1 (stereo unspecified)
dose: 31.0 mg/kg/injection, schedule: Q01DX Z (sc), vehicle: water
  T/C: 100 % of control

## CC[C@](O)(C(=O)O)c1cc2n(c(=O)c1CO)Cc1cc3ccccc3nc1-2
dose: 1.33 mg/kg/injection, schedule: Q01DX009 (ip), vehicle: saline
  T/C: 121 % of control
dose: 1.33 mg/kg/injection, schedule: Q01DX009 (sc), vehicle: saline
  T/C: 122 % of control
dose: 2.0 mg/kg/injection, schedule: Q01DX009 (ip), vehicle: saline
  T/C: 154 % of control
dose: 4.0 mg/kg/injection, schedule: Q01DX009 (ip), vehicle: saline
  T/C: 113 % of control
dose: 5.0 mg/kg/injection, schedule: Q01DX009 (sc), vehicle: saline
  T/C: 101 % of control
dose: 8.0 mg/kg/injection, schedule: Q01DX009 (ip), vehicle: saline
  T/C: 86 % of control
dose: 8.0 mg/kg/injection, schedule: Q01DX009 (sc), vehicle: saline
  T/C: 86 % of control
dose: 12.0 mg/kg/injection, schedule: Q01DX009 (sc), vehicle: saline
  T/C: 115 % of control
dose: 16.0 mg/kg/injection, schedule: Q01DX009 (sc), vehicle: saline
  T/C: 113 % of control
